The target in assay [1] is T1, SOS1 catalytic domain (residues 564-1049) (Homo sapiens, UniProt Q07889).
T1 sequence (Q07889 564-1049): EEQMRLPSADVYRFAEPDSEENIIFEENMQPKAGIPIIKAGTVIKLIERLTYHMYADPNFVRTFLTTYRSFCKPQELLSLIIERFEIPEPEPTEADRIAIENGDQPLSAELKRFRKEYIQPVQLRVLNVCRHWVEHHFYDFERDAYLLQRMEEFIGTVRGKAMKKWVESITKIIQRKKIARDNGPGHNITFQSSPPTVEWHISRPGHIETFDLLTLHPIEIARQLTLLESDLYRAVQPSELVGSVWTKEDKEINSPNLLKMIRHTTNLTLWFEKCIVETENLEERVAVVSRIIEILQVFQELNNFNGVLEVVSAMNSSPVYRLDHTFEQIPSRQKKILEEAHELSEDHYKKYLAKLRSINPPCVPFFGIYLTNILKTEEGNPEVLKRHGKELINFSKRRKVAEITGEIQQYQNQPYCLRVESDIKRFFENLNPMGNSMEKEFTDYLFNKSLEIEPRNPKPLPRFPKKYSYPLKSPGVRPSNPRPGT
The assay is described as follows: Mode of Action Assay: inhibition of SOS1 nucleotide exchange activity (SOS1 TR-FRET IC50 Assay).

Assay [2] concerns PC-9 cells (EGFR Ex19Del). Description: Potency Assay: pERK (SOS1 pERK IC50 Assay, AlphaLISA SureFire Ultra p-ERK1/2). The following applies: Homo sapiens; PC-9 cells (EGFR Ex19Del), 1 hour incubation, AlphaLISA p-ERK1/2; read-out: SOS1 pERK IC50. The class given is cell-based. In outline: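 Cellular pERK1/2 by AlphaLISA SureFire Ultra after 1 h compound exposure (37° C., highest concentration 10 μM, 3-fold steps, duplicates) of EGFR Ex19Del PC-9 cells seeded the day before. A 4-parameter fit of signal versus log concentration gives IC50.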
A general note: In Alpha technology, singlet oxygen from a donor bead excites a nearby acceptor bead.

Assay [3] addresses T1, SOS1 catalytic domain (residues 564-1049). The assay is described as follows: Potency Assay: binding affinity to SOS1 using Surface Plasmon Resonance (SPR). The following applies: immobilized SOS1 catalytic domain (residues 564-1049), read-out: SOS1 SPR Equilibrium Kd. More on the design: SOS1 catalytic domain (residues 564-1049) immobilized on a sensor chip. In outline: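 Kd was obtained by plotting binding response, taken just before association ended, versus compound concentration on a Biacore 8K. Compounds flowed at 50 μL/min over streptavidin-captured avi-SOS1 catalytic domain (~6000 RU), followed by buffer dissociation; HEPES 0.01 M/NaCl 0.15 M/0.05% P20 buffer, double-referenced.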

Where only a bound is given, the exact number is not on record here.

On to `C[C@@H](Nc1nc(Cl)nc2c1CN(C(=O)N1CC3CCC(C1)N3C)C2)c1cccc(C(F)F)c1F` [Example 429], for which the IC50 in assay [1] and in assay [2] was < 1 µM in each case. Further, the Kd in assay [3] was < 0.4 µM.
On to `C[C@@H](Nc1nc(Cl)nc2c1CN(C(=O)N1C[C@@H]3C[C@H]1CN3)C2)c1cccc(C(F)F)c1F` [Example 399], for which the results for the IC50 in assay [1] and in assay [2] were < 1 µM and > 1 µM, respectively. Further, in assay [3], the dissociation constant Kd was < 0.4 µM.
For `C[C@@H](Nc1nc(Cl)nc2c1CN(C(=O)[C@@H]1COCCN1)C2)c1cccc(C(F)(F)F)c1` [Example 275] the same measures were < 1 µM, > 1 µM and > 0.4 µM.
For `C[C@@H](Nc1nc(Cl)nc2c1CN(C(=O)N1CCOCC1)C2)c1cccc2c1OCC2(F)F` [Example 466, [2-chloro-4-[[(1R)-1-(3,3-difluoro-2H-benzofuran-7-yl)ethyl]amino]-5,7-dihydropyrrolo[3,4-d]pyrimidin-6-yl]-morpholino-methanone] the same measures were < 1 µM, < 1 µM and < 0.4 µM.
For `C[C@@H](Nc1nc(Cl)nc2c1CN(C(=O)[C@@H]1COCCN1)C2)c1cccc(C(F)F)c1F` [Example 309] the same measures were < 1 µM, < 1 µM and < 0.4 µM.
In the case of `C[C@@H](Nc1nc(Cl)nc2c1CN(C(=O)N1C[C@H]3C[C@@H]1CN3C)C2)c1cccc(C(F)F)c1F` [Example 416], the IC50 in assay [1] and in assay [2] was < 1 µM throughout. For the same compound, the Kd in assay [3] is < 0.4 µM.
With `COC1(C(=O)N2Cc3nc(Cl)nc(N[C@H](C)c4cccc(C(F)(F)CO)c4)c3C2)CCOCC1` [Example 167, [2-chloro-4-[[(1R)-1-[3-(1,1-difluoro-2-hydroxy-ethyl)phenyl]ethyl]amino]-5,7-dihydropyrrolo[3,4-d]pyrimidin-6-yl]-(4-methoxytetrahydropyran-4-yl)methanone], the IC50 in assay [1] and in assay [2] was < 1 µM each time. Also, the Kd in assay [3] is < 0.4 µM.
As for `C[C@@H](Nc1nc(Cl)nc2c1CN(C(=O)CN1CCN(C)CC1)C2)c1cccc(C(F)F)c1F` [Example 283], the half-inhibitory concentration (IC50) in assay [1] and in assay [2] was < 1 µM each time. For the same compound, the Kd in assay [3] was < 0.4 µM.
Turning to `CC(Nc1nc(Cl)nc2c1CN(C(=O)N1CCOCC1)C2)c1cccc(C(F)(F)CO)c1` (stereo not drawn) [Example 171, [2-chloro-4-[1-[3-(1,1-difluoro-2-hydroxy-ethyl)phenyl]ethylamino]-5,7-dihydropyrrolo[3,4-d]pyrimidin-6-yl]-morpholino-methanone], the IC50 in assay [1] and in assay [2] was < 1 µM each time. For the same compound, the equilibrium dissociation constant (Kd) in assay [3] is < 0.4 µM.
As for `C[C@@H](Nc1nc(Cl)nc2c1CN(C(=O)N1CCc3ccncc31)C2)c1cc(N)cc(C(F)(F)F)c1` [Example 142], the IC50 in assay [1] and in assay [2] was < 1 µM in each case. The Kd in assay [3] was < 0.4 µM.
`C[C@@H](Nc1nc(Cl)nc2c1CN(S(=O)(=O)N1CCOCC1)CC2)c1cccc(C(F)(F)CO)c1` [Example 181]: the IC50 in assay [1] and in assay [2] was < 1 µM in each case. In assay [3], the dissociation constant Kd is < 0.4 µM.
Turning to `C[C@@H](Nc1nc(Cl)nc2c1CN(C(=O)C1CCNCC1)C2)c1cc(N)cc(C(F)(F)F)c1` [Example 270], the figures for the 50% inhibitory concentration (IC50) in assay [1] and in assay [2] were < 1 µM and > 1 µM, respectively. In addition, the dissociation constant Kd in assay [3] was < 0.4 µM.
The matching figures for `C[C@@H](Nc1nc(I)nc2c1CN(C(=O)N1CCOCC1)C2)c1cc(N)cc(C(F)(F)F)c1` [Example 134, N-[(1R)-1-[3-amino-5-(trifluoromethyl)phenyl]ethyl]-2-iodo-6-(morpholine-4-carbonyl)-5H,6H,7H-pyrrolo[3,4-d]pyrimidin-4-amine]: < 1 µM, < 1 µM and < 0.4 µM.
Turning to `COC1(C(=O)N2Cc3nc(Cl)nc(N[C@H](C)c4cccc(C(F)(F)F)c4)c3C2)CCOCC1` [Example 227], the 50% inhibitory concentration (IC50) in assay [1] and in assay [2] was < 1 µM throughout. Further, the dissociation constant (Kd) in assay [3] was < 0.4 µM.
Regarding `C[C@@H](Nc1nc(Cl)nc2c1CN(S(=O)(=O)N1CCOCC1)C2)c1cc(N)cc(C(F)(F)F)c1` [Example 24, N-[(1R)-1-[3-amino-5-(trifluoromethyl)phenyl]ethyl]-2-chloro-6-morpholinosulfonyl-5,7-dihydropyrrolo[3,4-d]pyrimidin-4-amine], the concentration for half-maximal inhibition (IC50) in assay [1] and in assay [2] was < 1 µM throughout. For the same compound, the dissociation constant Kd in assay [3] was < 0.4 µM.
As for `C[C@@H](Nc1nc(Cl)nc2c1CN(C(=O)c1ncccn1)C2)c1cc(N)cc(C(F)(F)F)c1` [Example 70], the IC50 in assay [1] was > 1 µM; in assay [2] it was < 1 µM. Also, the dissociation constant (Kd) in assay [3] is > 0.4 µM.
For the compound `COC1(C(=O)N2Cc3nc(Cl)nc(N[C@H](C)c4cccc(C(F)(F)F)c4)c3C2)CNC1` [Example 316], the IC50 in assay [1] and in assay [2] was < 1 µM each time. The Kd in assay [3] is < 0.4 µM.
For `C[C@@H](Nc1nc(Cl)nc2c1CN(C(=O)c1cc(-n3ccnc3)ccn1)C2)c1cc(N)cc(C(F)(F)F)c1` [Example 104], the 50% inhibitory concentration (IC50) in assay [1] and in assay [2] was < 1 µM in each case. Further, the Kd in assay [3] is < 0.4 µM.
On to `C[C@@H](Nc1nc(Cl)nc2c1CN(C(=O)N1CCNC(C(F)(F)F)C1)C2)c1cccc(C(F)F)c1F` (stereo partly drawn) [Example 387], for which the IC50 in assay [1] and in assay [2] was < 1 µM throughout. In assay [3], the Kd is < 0.4 µM.
Regarding `C[C@@H](Nc1nc(Cl)nc2c1CN(C(=O)c1cnc[nH]1)C2)c1cc(N)cc(C(F)(F)F)c1` [Example 108], the IC50 in assay [1] and in assay [2] was < 1 µM throughout. Also, the Kd in assay [3] is < 0.4 µM.
Turning to `Cc1c(C(C)Nc2nc(Cl)nc3c2CN(C(=O)N2CCOCC2)C3)cccc1C(F)(F)CO` (stereo not drawn) [Example 507, 2-[3-(1-{[2-chloro-6-(morpholine-4-carbonyl)-5H,6H,7H-pyrrolo[3,4-d]pyrimidin-4-yl]amino}ethyl)-2-methylphenyl]-2,2-difluoroethan-1-ol], the half-inhibitory concentration (IC50) in assay [1] was < 1 µM; in assay [2], > 1 µM. The Kd in assay [3] was < 0.4 µM.
For `C[C@@H](Nc1nc(Cl)nc2c1CN(C(=O)C1CN(C)CCO1)C2)c1cccc(C(F)F)c1F` (stereo partly drawn) [Example 298] the same measures were < 1 µM, > 1 µM and < 0.4 µM.
For `COC1(C(=O)N2Cc3nc(Cl)nc(N[C@H](C)c4cccc(C(F)F)c4F)c3C2)CCN(C)CC1` [Example 323] the same measures were < 1 µM, < 1 µM and < 0.4 µM.
Turning to `C[C@@H](Nc1nc(Cl)nc2c1CN(C(=O)N1C[C@@H]3C[C@H]1CN3C)C2)c1cccc(C(F)F)c1F` [Example 412], the IC50 in assay [1] and in assay [2] was < 1 µM in each case. In addition, in assay [3], the Kd is < 0.4 µM.
Take `C[C@@H](Nc1nc(Cl)nc2c1CN(C(=O)C1(C#N)CNC1)C2)c1cccc(C(F)F)c1F` [Example 328]: the IC50 in assay [1] and in assay [2] was < 1 µM throughout. Besides, the Kd in assay [3] was < 0.4 µM.
On to `C[C@@H](Nc1nc(Cl)nc2c1CN(C(=O)N1CCCC13CCNC3)C2)c1cccc(C(F)F)c1F` (stereo partly drawn) [Example 382], for which the IC50 is < 1 µM in assay [1] and > 1 µM in assay [2]. Further, the Kd in assay [3] was < 0.4 µM.
For `COC1(C(=O)N2Cc3nc(Cl)nc(N[C@H](C)c4cccc(C(F)F)c4F)c3C2)CCNCC1` [Example 310], the IC50 in assay [1] and in assay [2] was < 1 µM in each case. Also, the Kd in assay [3] is < 0.4 µM.
Regarding `C[C@@H](Nc1nc(Cl)nc2c1CN(C(=O)C1(C#N)CCN(C)CC1)C2)c1cccc(C(F)(F)F)c1` [Example 280], the IC50 in assay [1] and in assay [2] was < 1 µM in each case. Besides, the Kd in assay [3] is < 0.4 µM.
`COC1(C(=O)N2Cc3nc(Cl)nc(N[C@H](C)c4cccc(C(F)(F)CN)c4)c3C2)CCOCC1` [Example 525, N-[(1R)-1-[3-(2-amino-1,1-difluoroethyl)phenyl]ethyl]-2-chloro-6-(4-methoxyoxane-4-carbonyl)-5H,6H,7H-pyrrolo[3,4-d]pyrimidin-4-amine]: the half-inhibitory concentration (IC50) in assay [1] and in assay [2] was < 1 µM throughout. The Kd in assay [3] is < 0.4 µM.
For `C[C@@H](Nc1nc(Cl)nc2c1CN(C(=O)c1ccncn1)C2)c1cc(N)cc(C(F)(F)F)c1` [Example 73], the IC50 in assay [1] and in assay [2] was < 1 µM in each case. Also, the Kd in assay [3] was < 0.4 µM.
Take `C[C@@H](Nc1nc(Cl)nc2c1CN(C(=O)N1CCNCC1)C2)c1cccc(C(F)(F)F)c1` [Example 364]: the IC50 in assay [1] and in assay [2] was < 1 µM throughout. Besides, in assay [3], the Kd was < 0.4 µM.

As usually defined, the IC50 is the concentration that inhibits the measured activity by half. As a reminder, the Kd is the equilibrium constant for the complex coming apart.

Values taken from patent publication US20230096028A1, “BICYCLIC HETEROCYCLYL COMPOUNDS AND USES THEREOF” (Revolution Medicines, Inc., priority 2019, published 2023).
